According to ChEMBL document CHEMBL1126397, “Synthesis of acid stable 5-o-fluoromethyl phosphonates of nucleosides. Evaluation as inhibitors of reverse transcriptase” (Bioorg Med Chem Lett, 1992):

Each compound was assayed against T1, Avian myoblastosis virus polyprotein II (Avian myeloblastosis virus, UniProt Q86831) (assay: Inhibitor of avian myeloblastosis virus AMV reverse transcriptase).
T1 sequence (Q86831 whole entry): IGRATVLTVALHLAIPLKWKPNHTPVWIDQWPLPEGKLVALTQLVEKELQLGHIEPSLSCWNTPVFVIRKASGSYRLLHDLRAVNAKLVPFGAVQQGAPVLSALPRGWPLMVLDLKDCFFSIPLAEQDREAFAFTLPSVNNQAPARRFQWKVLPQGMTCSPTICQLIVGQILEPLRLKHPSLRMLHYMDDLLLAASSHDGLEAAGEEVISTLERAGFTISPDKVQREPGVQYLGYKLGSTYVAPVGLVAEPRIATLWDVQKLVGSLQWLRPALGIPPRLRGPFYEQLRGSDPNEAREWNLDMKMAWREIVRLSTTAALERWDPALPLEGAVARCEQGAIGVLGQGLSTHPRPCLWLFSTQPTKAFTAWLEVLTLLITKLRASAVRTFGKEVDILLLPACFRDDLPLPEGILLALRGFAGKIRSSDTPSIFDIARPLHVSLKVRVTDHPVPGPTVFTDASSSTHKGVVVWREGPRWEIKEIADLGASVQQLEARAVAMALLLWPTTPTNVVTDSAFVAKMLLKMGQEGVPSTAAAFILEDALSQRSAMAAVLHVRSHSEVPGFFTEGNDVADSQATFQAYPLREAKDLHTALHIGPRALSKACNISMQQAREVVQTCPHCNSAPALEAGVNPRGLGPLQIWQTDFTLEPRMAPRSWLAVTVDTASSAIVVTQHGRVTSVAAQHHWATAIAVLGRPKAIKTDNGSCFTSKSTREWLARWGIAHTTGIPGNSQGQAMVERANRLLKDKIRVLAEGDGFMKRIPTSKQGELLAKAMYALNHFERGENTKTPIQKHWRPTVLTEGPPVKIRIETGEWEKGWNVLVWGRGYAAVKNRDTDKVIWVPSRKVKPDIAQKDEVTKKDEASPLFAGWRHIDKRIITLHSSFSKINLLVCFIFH
For `Cc1cn(C2CC(N=[N+]=[N-])C(COP(=O)(O)C(F)F)O2)c(=O)[nH]c1=O` (stereo not given), the IC50 was 118 µM.
`O=c1[nH]c(=O)n([C@H]2C[C@H](O)[C@@H](COP(=O)(O)C(F)(F)F)O2)cc1F` showed an IC50 of 82 µM.
`Cc1cn(C2CC(N=[N+]=[N-])C(COP(=O)(O)C(F)(F)F)O2)c(=O)[nH]c1=O` (stereo not given) gave an IC50 of 37.6 µM.
With `Cc1cn(C2C=CC(COP(=O)(O)CF)O2)c(=O)[nH]c1=O` (stereo not given) the IC50 was 281 µM.
For `Cc1cn(C2C=CC(COP(=O)(O)C(F)F)O2)c(=O)[nH]c1=O` (stereo not given), the IC50 was 887 µM.
In the case of `Cc1cn(C2CC(N=[N+]=[N-])C(COP(=O)(O)CF)O2)c(=O)[nH]c1=O` (stereo not given), the IC50 is reported as 127 µM.
`Nc1ccn(C2O[C@H](COP(=O)(O)C(F)F)[C@@H](O)[C@H]2O)c(=O)n1` (stereo not given in full) was tested, and the IC50 was 171 µM.
Compound `O=c1[nH]c(=O)n([C@H]2C[C@H](O)[C@@H](COP(=O)(O)C(F)F)O2)cc1F` has an IC50 of 375 µM.
With `Cc1cn(C2C=CC(COP(=O)(O)C(F)(F)F)O2)c(=O)[nH]c1=O` (stereo not given) the IC50 was 842 µM.
`Nc1nc(O)c2ncn(C3O[C@H](COP(=O)(O)C(F)(F)F)[C@@H](O)[C@H]3O)c2n1` (stereo not given in full) showed an IC50 of 145 µM.
